The text below walks through data of patent US20030068615A1, “Polypeptides that bind HIV gp120 and related nucleic acids, antibodies, compositions, and methods of use” (priority 1999, published 2003).

The experiment deals with HIV-1LAI envelope gp120 (Human immunodeficiency virus type 1 group M subtype B, UniProt P03377). The class given is binding. Conditions: for Binding Results For Window Length (counts bound-background), 9 / Binding Results For Window Length (counts bound-background), 12 / Binding Results For Window Length (counts bound-background), 15 / Binding Results For Window Length (counts bound-background), 18: STRL33 amino terminus; for Binding Results For Window Length (counts bound-background), 9: 9-mer starting at the first residue of the printed sequence; for Binding Results For Window Length (counts bound-background), 12: 12-mer starting at the first residue of the printed sequence; for Binding Results For Window Length (counts bound-background), 15: 15-mer starting at the first residue of the printed sequence; for Binding Results For Window Length (counts bound-background), 18: 18-mer starting at the first residue of the printed sequence; for Counts per 20′ Average-background: CCR5 18-mer scan; for number of radioactive decays (counts) counted: human CD4 21-mer scan, empty control 2075; for Relative % of Control: CCR5 (1-18) alanine variants, mean of two syntheses and binding experiments ± average deviation, wild-type = 100%.

[1] abbreviates: STRL33 18-mer scan, background subtracted, first of two count columns.
[2] abbreviates: STRL33 18-mer scan, background subtracted, second of two count columns.
Setting [3] is: Panel A, 21-mers of CD4, empty control 515 and 617.
Setting [4] is: Panel C, 15-mers and 18-mers of CD4, empty control 556.
The mark [5] stands for this setting: Panel E, 9-mers and 12-mers of CD4, empty control 571.
[6] abbreviates: CXCR4 18-mer scan, background subtracted, empty control 0.
Setting [7] is: CXCR4 18-mer scan, empty control 412.
Where [8] appears, read: Panel B, 15-mers and 18-mers of CD4, empty control 575.
The mark [9] stands for this setting: radiolabeled HIV-1LAI gp120, background subtracted.
The mark [10] stands for this setting: Panel F, sequential alanine replacements of CD4 polypeptides, duplicate series, empty control 569.
Setting [11] is: Panel D, 9-mers and 12-mers of CD4, empty control […].
Where [12] appears, read: Panel G, alanine replacements and serial truncations (Z) of CD4 polypeptides, empty control 580.

Several values for one entry are separate records, joined by “and”; a condition that tells them apart may be missing. Equal entries are not always repeated. Where two headings read alike, the source gives them in different places.

For the sequence “MAEHDYHEDYGFSSFNDS [STRL33 segment 1-18]”, under setting [1], the “radioactive counts recorded in twenty minutes” value (shortened to “radioactive counts recorded”) is given as 1178.5 counts. The “radioactive counts recorded” value under setting [2] is on record as 1320.5 counts. Further, under “background subtracted”, the “Binding Results For Window Length (counts bound-background), 9” value amounted to 160 counts; the “Binding Results For Window Length (counts bound-background), 12” value came out at 625 counts; the “Binding Results For Window Length (counts bound-background), 15” value is reported as 1239 counts; the “Binding Results For Window Length (counts bound-background), 18” value was 1386 counts.

As for LAFTVEKLTGSGELWWQAERA, the “COUNTS of radiolabeled gp120 retained” value under setting [3] amounted to 3577 counts. On the same count and under the same terms, then FQKASSIVYKKEGEQVEFSFP, with 9382 counts. Take KASSIVYKKEGEQVEFSF: under setting [4], the “COUNTS of radiolabeled gp120 retained” value was determined as 536 counts. For KKEGEQVEF, under setting [5], the “COUNTS of radiolabeled gp120 retained” value turned out to be 546 counts. AFQKASSIVYKKEGEQVEFSF: the “COUNTS of radiolabeled gp120 retained” value under setting [3] was found to be 3775 counts. Regarding “ALAFFHCCLNPILYAFLG [CXCR4 segment 289-306]”, the “radioactive counts recorded” value by setting is: under setting [6], 181 counts; under setting [7], 593 counts. Take PQIIYGNVFNLDKLICGY: the “radioactive counts recorded” value is given as −18.5 counts under setting [1] and −37.5 counts under setting [2]. Regarding VFGLTANSDTHLLQGQSL, the “COUNTS of radiolabeled gp120 retained” value under setting [8] came out at 531 counts. As for VVLAFQKASSIVYKKEGE, the “COUNTS of radiolabeled gp120 retained” value under setting [4] was 560 counts. For the sequence MLVILILINCKRLKSMTD [CCR5 segment 49-66], the “Counts per 20′ Average-background” value under setting [9] came out at 84 counts per 20′. As to THLAQGQSLTLTLES, under setting [10], the “COUNTS of radiolabeled gp120 retained” value is 7701 counts and 5120 counts. In the case of TLLHAGGFQKHRSLKIIF, the “radioactive counts recorded” value under setting [1] was found to be 1041.5 counts and the “radioactive counts recorded” value under setting [2] is 999.5 counts. Take LIIKNLKIEDSDTYICEV: the “COUNTS of radiolabeled gp120 retained” value under setting [8] is 634 counts. For GMWQCLLSDSGQVLLESNIKV, the “number of radioactive decays (counts) counted” value (“number of radioactive decays” below) is given as 4185 counts.

Regarding IVVLAFQKASSIVYKKEG, the “COUNTS of radiolabeled gp120 retained” value under setting [4] was 531 counts. With THLLQGQSLTLALES, the “COUNTS of radiolabeled gp120 retained” value under setting [10] was 11699 counts and 8147 counts. As for IEDSDTYIC, the “COUNTS of radiolabeled gp120 retained” value under setting [11] was found to be 567 counts. For the sequence IPDFIFANVSEADDRYIC, the “radioactive counts recorded” value was found to be 438 counts under setting [6] and 850 counts under setting [7]. With YHEDYGFSSFNDSSQEEH, for the setting “background subtracted”, the “Binding Results For Window Length (counts bound-background), 9” value came to 728 counts; the “Binding Results For Window Length (counts bound-background), 12” value came out at 1950 counts; the “Binding Results For Window Length (counts bound-background), 15” value stood at 1357 counts; the “Binding Results For Window Length (counts bound-background), 18” value is reported as 985 counts. Take ANSDTHLLQGQSLTLTLE: the “COUNTS of radiolabeled gp120 retained” value under setting [8] was 1540 counts.

As for “AFTVEKLTGSGELWWQAERAS [human CD4 226-246]”, the “number of radioactive decays” value is listed as 3992 counts. Moreover, under setting [3], the “COUNTS of radiolabeled gp120 retained” value was found to be 1739 counts. On to DIVVLAFQK, for which the “COUNTS of radiolabeled gp120 retained” value under setting [5] was 686 counts. As for FKIDIVVLAFQKASSIVYKKE, under setting [3], the “COUNTS of radiolabeled gp120 retained” value was 593 counts.

Turning to “LPLADLVFVCTLPFWAYA [STRL33 segment 73-90]”, the “radioactive counts recorded” value by setting is: under setting [1], 557.5 counts; under setting [2], 960.5 counts. Turning to QLLVFGLTANSD, the “COUNTS of radiolabeled gp120 retained” value under setting [11] is on record as 721 counts.

Turning to LGLVLPLLVMVICYSGIL, under setting [9], the “Counts per 20′ Average-background” value was found to be 180 counts per 20′.

Consider “EVNLVVMRATQLQKNLTCEVW [human CD4 311-331]”, for which the “number of radioactive decays” value is listed as 2183 counts. Take IFTRSQKEGLHYTCSSHF: the “Counts per 20′ Average-background” value under setting [9] is reported as 98 counts per 20′.

Take “MDYQVSSPIYDINAYTSE [CCR5 (1-18) variant Y14A]”: the “Relative % of Control” value is 15 ± 0.3%. The “percentage of binding of mutant polypeptide compared to wild-type polypeptide, gp120” value (CCR5 alanine mutant peptide, radiolabeled HIV-1LAI gp120) is recorded as 14.6%. As for VVLAFQKAS, the “COUNTS of radiolabeled gp120 retained” value under setting [5] turned out to be 600 counts. Consider FTVEKLTGS, for which, under setting [5], the “COUNTS of radiolabeled gp120 retained” value amounted to 574 counts. For FGLTANSDTHLL, the “COUNTS of radiolabeled gp120 retained” value under setting [11] amounted to 571 counts. Regarding “VMRATQLQKNLTCEVWGPTSP [human CD4 316-336]”, the “number of radioactive decays” value was determined as 2144 counts. For “IVGNGLVILVMGYQKKLR [CXCR4 segment 53-70]”, the “radioactive counts recorded” value by setting is: under setting [6], 238 counts; under setting [7], 650 counts. For “ICDRFYPNDLWVVVFQFQ [CXCR4 segment 185-202]”, in that order: 306 counts and 718 counts. In the case of DAVANWYFGNFLCKAVHV, the “radioactive counts recorded” value under setting [6] is 112 counts and the “radioactive counts recorded” value under setting [7] is recorded as 524 counts. For DDRYICDRFYPNDLWVVV, in that order: 125 counts and 537 counts. On to IKNLKIEDS, for which, under setting [11], the “COUNTS of radiolabeled gp120 retained” value came out at 557 counts. On to “HKWISITEALAFFHCCLN [CXCR4 segment 281-298]”, for which the “radioactive counts recorded” value runs as follows: under setting [6], 163 counts; under setting [7], 575 counts. Take PLAFTVEKLTGSGEL: the “COUNTS of radiolabeled gp120 retained” value under setting [4] stood at 612 counts. With LPYYIGISIDSFILLEII, the “radioactive counts recorded” value is 439 counts under setting [6] and 851 counts under setting [7]. Turning to SSQEEEQAFLQFSKV, where the note is “background subtracted”, the “Binding Results For Window Length (counts bound-background), 9” value is listed as 287 counts; the “Binding Results For Window Length (counts bound-background), 12” value was 4455 counts; the “Binding Results For Window Length (counts bound-background), 15” value amounted to 4732 counts. Take “KRGGHSSVSTESESSSFH [CXCR4 segment 333-350]”: the “radioactive counts recorded” value under setting [6] came to 167 counts and the “radioactive counts recorded” value under setting [7] amounted to 579 counts. In the case of IIKNLKIEDSDTYIC, the “COUNTS of radiolabeled gp120 retained” value under setting [8] came out at 664 counts. Take GLHYTCSSEFPYSQYQFW: under setting [9], the “Counts per 20′ Average-background” value is 301 counts per 20′. On to “SVADLLFVITLPFWAVDA [CXCR4 segment 81-98]”, for which the “radioactive counts recorded” value runs as follows: under setting [6], 253 counts; under setting [7], 665 counts. Take KEGEQVEFSFPLAFT: under setting [4], the “COUNTS of radiolabeled gp120 retained” value is reported as 3253 counts.

GEQVEFSFPLAATVE: the “COUNTS of radiolabeled gp120 retained” value under setting [12] is 10130 counts and 9572 counts. The same measure, in the same setting: the result for GEQVEFSFALAFTVE reads 20480 counts and 19480 counts. With KASSIVYKKEGEQVE, the “COUNTS of radiolabeled gp120 retained” value under setting [4] was 563 counts.

For “SKTFSASHNVEATSMFQL [STRL33 segment 325-342]”, the “radioactive counts recorded” value is, setting by setting: under setting [1], 1524.5 counts; under setting [2], 1239.5 counts. As for “LVMGYQKKLRSMTDKYRL [CXCR4 segment 61-78]”, the “radioactive counts recorded” value is 105 counts under setting [6] and 517 counts under setting [7]. Consider QEAPERASSVYTRSTGEQ [CCR5 segment 329-], for which the “Counts per 20′ Average-background” value under setting [9] amounted to 84 counts per 20′. As to LTSVSRGSSLKILSKGKR, the “radioactive counts recorded” value reads like this: under setting [6], 183 counts; under setting [7], 595 counts. Consider KEGEQVEFSFPL, for which the “COUNTS of radiolabeled gp120 retained” value under setting [5] is recorded as 710 counts. In the case of IDIVVLAFQ, the “COUNTS of radiolabeled gp120 retained” value under setting [5] worked out at 691 counts. With MDYQVASPIYDINYYTSE, the “Relative % of Control” value came to 124 ± 3%.

Turning to EFSFPLAFTVEK, under setting [5], the “COUNTS of radiolabeled gp120 retained” value was found to be 585 counts. On to QKKVEFKIDIVVLAF, for which the “COUNTS of radiolabeled gp120 retained” value under setting [4] is listed as 1333 counts. As to SQYQFWKNFQTLKIVILG [CCR5 segment 185-], the “Counts per 20′ Average-background” value under setting [9] turned out to be 1572 counts per 20′.

AARLLPPLYSLVFIFGFV [CCR5 segment 29-46]: the “Counts per 20′ Average-background” value under setting [9] was determined as 33 counts per 20′.

For the sequence LLTIDRYLAVVHAVFALK, the “Counts per 20′ Average-background” value under setting [9] was 31 counts per 20′. Consider DTYICEVEDQKE, for which the “COUNTS of radiolabeled gp120 retained” value under setting [11] was found to be 720 counts. Turning to SDTYICEVEDQKEEV, the “COUNTS of radiolabeled gp120 retained” value under setting [8] amounted to 993 counts. Turning to “LNPILYAFLGAKFKTSAQ [CXCR4 segment 297-314]”, the “radioactive counts recorded” value was found to be 274 counts under setting [6] and 686 counts under setting [7]. VLQNQKKVEFKI: under setting [5], the “COUNTS of radiolabeled gp120 retained” value is listed as 503 counts. For FSFPLAFTVEKL, the “COUNTS of radiolabeled gp120 retained” value under setting [5] stood at 573 counts. “RLHLSVADLLFVITLPFW [CXCR4 segment 77-94]”: the “radioactive counts recorded” value under setting [6] worked out at 136 counts and the “radioactive counts recorded” value under setting [7] turned out to be 548 counts. Regarding AEHDYHEDYGFSSFNDSS, under “background subtracted”, the “Binding Results For Window Length (counts bound-background), 9” value is recorded as 354 counts; the “Binding Results For Window Length (counts bound-background), 12” value is given as 697 counts; the “Binding Results For Window Length (counts bound-background), 15” value was found to be 1095 counts; the “Binding Results For Window Length (counts bound-background), 18” value amounted to 1014 counts.

WVVAVFASLPGIIFTRSQ [CCR5 segment 153-]: the “Counts per 20′ Average-background” value under setting [9] is given as 87 counts per 20′. Regarding VEDQKEEVQLLVFGL, under setting [8], the “COUNTS of radiolabeled gp120 retained” value is recorded as 3816 counts.
